Measured values as given in patent US20120328696A1, “ANTI-PARKINSONIAN COMPOUND ACETYLSALICYLIC ACID MALTOL ESTER” (Hutecs Korea Pharmaceutical Co., Ltd., priority 2008, published 2012).

Legend:
[1] = Kim et al., 1997a; cited from earlier work
[2] = Kim et al., 1997b; cited from earlier work
[3] = in vitro; Han et al., 1994; cited from earlier work
[4] = system: C57BL/6 mice; assay: Rota-rod test after MPTP; format: in vivo; settings: AME 25 mg/kg p.o.; MPTP 25 mg/kg i.p. once a day for 7 days; 3 days after final MPTP
Protocol: (§1) AME (25 mg/kg, p.o) administration was started 4 days (twice daily) before the first injection of MPTP and continued for 7 consecutive days (once a day). MPTP was injected (25 mg/kg, i.p) once a day 1 h after AME treatment for consecutive 7 days.
The apparatus (Ugo Basile model 7650) consisted of a base platform and a rotating rod with a nonslippery surface. The rod was placed at a height of 15 cm from the base. The rod, 30 cm in length, was divided into 5 equal sections by 6 opaque disks (so that the subjects cannot be distracted by one another). To assess motor performance, the mice were first trained on the apparatus 2 minutes at a rate 4 r.p.m. per 30 s prior to the test. The test was performed 30 minutes after training and an accelerating paradigm was applied at a rate 4 r.p.m. per 30 s, starting from 4 r.p.m. to a maximum speed of 40 r.p.m., then the rotation speed was kept constant at 40 r.p.m. for a maximum of 300 s. The duration for which the animal could maintain balance on the rotating drum was measured as the rotarod latency, with a maximal cut-off time of 300 s.

[5] = system: glutathione peroxidase (GPx); settings: Kim et al., 1996; cited from earlier work
[6] = Kim et al., 1997a; cited from earlier work; remark: listed apart in the source
[7] = system: dopamine (DA), DOPAC, HVA; assay: Striatal DA, DOPAC and HVA after MPTP (HPLC); format: in vivo, mice; settings: AME 25 mg/kg p.o., MPTP 25 mg/kg i.p. x7 days
Protocol: as §1
At 3 days after last MPTP injection, mice were killed by cervical dislocation. The brains were removed and placed on an ice-cooled plate. Striatum was dissected and immediately frozen on dry ice and stored at −70° C. until extraction. Brain regions obtained from each animal were weighed, ultrasonicated in 10% perchloric acid containing 10 ng/mg of the internal standard dihydroxybenzilamine, and centrifuged at 20,000×g for 10 min. The levels of DA and its metabolites 3,4-dihydroxyphenylacetic acid (DOPAC) and homovanillic acid (HVA) in brain tissue extracts were determined by HPLC coupled with electrochemical detection as described (Kim et al., 1999). Briefly, striatal tissues were sonicated in 0.2 M perchloric acid (20% W/V) containing the internal standard 3,4-dihydroxybenzylamine (10 mg wet tissue/ml). The homogenate was centrifuged and a 20 μl aliquot of the supernatant was injected into the HPLC equipped with a 3 μm C18 column. The mobile phase was comprised of 26 ml of acetonitrile, 21 ml of tetrahydrofuran and 960 ml of 0.15 M monochloroacetic acid (pH 3.0) containing 50 mg/l of EDTA and 200 mg/l of sodium octyl sulfate. The amount of DA, DOPAC and HVA were determined by comparison of peak height ratio of tissue sample with standards, and were expressed in nanograms per gram of wet weight of tissue.

[8] = system: tyrosine hydroxylase; assay: Striatal and nigral TH-like immunoreactivity after MPTP (immunocytochemistry); format: in vivo, mice; settings: AME 25 mg/kg p.o., MPTP 25 mg/kg i.p. x7 days
Protocol: as §1
Animals were sacrificed at 3 days after final MPTP-treatment. They were anesthetized with 60% urethane and perfused transcardially with 200 ml of 50 mM phosphate buffered saline (PBS), followed by 50 ml of paraformaldehyde in PBS. The brain were fixed at 4° C. for 24 h in the same fixative and then cryoprotected in 30% sucrose. The brains were sectioned on a horizontal sliding microstome into 35 μm transverse free-floating sections. The immunocytochemistry was performed as described previously (Kim et al., 2000a; Kim et al., 2000b). Briefly, prior to incubation with the primary antibodies, sections were preincubated with 0.3% hydrogen peroxide in PBS for 30 min (to block endogenous peroxidase activity), then in PBS containing 0.4% Triton X-100 for 20 min and 1% normal serum for 20 min. […] The quantitative analyses were performed using a computer-based image analysis system (Optimas version 6.2; Neurolucida Program) (Kim et al., 1999).

## CC(=O)Oc1ccccc1C(=O)Oc1c(C)occc1=O [AME, 3-(2-methyl-4-pyronyl)-2-acetyloxybenzoate]
[1]
  gastrointestinal damage: negligible gastrointestinal damage
[2]
  neuroexcitotoxicity: attenuates neuroexcitotoxicity
[3]
  antioxidative efficacy: antioxidative efficacy in vitro
[4]
  effect on MPTP-induced impairment in rota-rod performance: significantly attenuated
[5]
  activity of glutathione peroxidase (GPx): elevating the activity of glutathione peroxidase (GPx)
[6]
  antithrombotic efficacy: antithrombotic efficacy
[7]; p<0.01 vs. MPTP alone
  effect on MPTP-induced increase in DA turnover rate: significant attenuated
  effect on MPTP-induced reduction in striatal HVA: significant attenuated
  effect on MPTP-induced reduction in striatal dopamine (DA): significant attenuated
[7]; p<0.05 vs. MPTP alone
  effect on MPTP-induced reduction in striatal DOPAC: significant attenuated
[8]; striatum
  effect on MPTP-induced decrease in striatal TH-IR: significantly attenuated these decreases in TH-IR
[8]; substantia nigra
  effect on MPTP-induced decrease in substantia nigra TH-IR: significantly attenuated these decreases in TH-IR
